These results are taken from patent US4011330A, “Vincaminic acid amides” (Synthelabo, priority 1974, dated 1977).

Data set [1] is described as follows: Solubility in water (remark in preparation example). It counts as physicochemical. The settings on record: base.
For another data set, the system named is mice of strain CD1. In words: Anoxia test on mice under low (oxygen) pressure conditions. The format is in vivo. The settings on record: Mus musculus, ip, intraperitoneally 10 minutes before the test, 190 mm of mercury (5.25% of oxygen), read-out: MAD (mean active dose, the dose which increases the survival time by 100%). Here is the method: Anoxia test on mice under low (oxygen) pressure conditions
Mice of strain CD1 are kept in an atmosphere depleted in oxygen, by producing a partial vacuum (190 mm of mercury, corresponding to 5.25% of oxygen).
The survival time of the animals is noted. This time is increased by agents capable of assisting tissue oxygenation and in particular cerebral oxygenation. The compounds studied are administered in several doses intraperitoneally 10 minutes before the test. The percentage increases in the survival time relative to the values obtained with control animals are calculated. The mean active dose (MAD), the dose which increases the survival time by 100%, is determined graphically.

A short description of data set [2]: Acute toxicity (LD50) in mice. It counts as in vivo. As to conditions: mouse, in vivo, mice, compounds tested in a solution containing ascorbic acid; for LD50 at 168 h: oral, mortality over 7 days. How it is done: (§1) The compounds were administered orally to mice of the CD1 strain. The mortality was recorded over 7 days and the 50% lethal doses (LD50) were determined graphically.
(§2) The toxicities on intraperitoneal and intravenous administration were determined in accordance with the method of Miller and Taniter (Proc. Soc. Exp. Biol. Med. 1944- vol 57, page 261).

The subject of another data set is mice of the CD1 strain. Kind of data set: Acute toxicity (LD50) in mice. It counts as in vivo. How it is done:
as §1, §2

[3] abbreviates: ip, intraperitoneal, read-out: LD50 intraperitoneal.
[4] abbreviates: intravenous, read-out: LD50 intravenous.

For orientation: LD50 means the dose at which mortality reaches 50%.

Where two headings read alike, the source gives them in different places.

`CCC12CCCN3CCc4c(n(c5ccccc45)C(C(=O)NC4CCCCC4)C1)C32` (stereo not shown) [S.L.D. 135, N-cyclohexyldesoxyvincaminamide]: the water solubility result in data set [1] was “water-insoluble”.
`CCC12CCCN3CCc4c(n(c5ccccc45)C(C(N)=O)C1)C32` (stereo not shown) [SLC 156, Desoxyvincaminamide]: in the data set on mice of strain CD1, the ED (100% increase in survival time) was 1.8 mg/kg. Moreover, the LD50 in data set [2] (setting [3]) came out at 210 mg/kg; in data set [2] (setting [4]), 109 mg/kg. Further, the 50% lethal dose (LD50) at 168 h in data set [2] was determined as 607 mg/kg.
`CCC12CCCN3CCc4c(n(c5ccccc45)C(C(=O)NC4CC4)C1)C32` (stereo not shown) [SLD 105, N-cyclopropyldesoxyvincaminamide]: in the data set with mice of strain CD1, the ED (100% increase in survival time) came out at 1 mg/kg. Further, the water solubility result in data set [1] is reported as “water-insoluble”. The LD50 came to 165 mg/kg in data set [2] (setting [3]) and 76 mg/kg in data set [2] (setting [4]). In data set [2], the median lethal dose (LD50) at 168 h was 290 mg/kg. In addition, the “resorption by the digestive tract” value in the data set with mice of the CD1 strain (inferred from oral/intravenous LD50 ratio) is “good”. Besides, in the data set on mice of the CD1 strain (mice, oral/intravenous), the “ratio of the LD50 for oral administration to the LD50 for intravenous administration” value is reported as “low”.
Regarding `CCC12C=C(C(=O)NC3CC3)n3c4c(c5ccccc53)CCN(CCC1)C42` (stereo not shown) [SLD 121, N-monocyclopropylapovincaminamide], the ED (100% increase in survival time) with mice of strain CD1 was determined as 2.5 mg/kg.
On the same count and under the same terms, as for `CCC12CCCN3CCc4c(n(c5ccccc45)C(C(=O)NC4CCC4)C1)C32` (stereo not shown) [SLD 142, N-cyclobutyldesoxyvincaminamide], the figure is 0.5 mg/kg.
For `CC[C@]12CCCN3CCc4c(n(c5ccccc45)[C@@](O)(C(=O)OC)C1)[C@@H]32` [Vincamine, reference compound], in the data set on mice of strain CD1, the ED (100% increase in survival time) came out at 8 mg/kg. Further, the LD50 in data set [2] (setting [4]) stood at 75 mg/kg.
